According to patent US20250186419A1, “DOSING REGIMENS FOR TREATING PAIN” (VERTEX PHARMACEUTICALS INCORPORATED, priority 2023, published 2025):
Entries after “also recorded” stand apart in the source; their conditions may differ.

Tests used:
[1] = test system: patients undergoing abdominoplasty; test: Study of Compound 1 in patients undergoing abdominoplasty (NCT05034952); assay type: in vivo, human
[2] = test system: acute pain after an abdominoplasty; test: Randomized, double-blind, placebo-controlled, 3-arm study of Compound 1 in acute pain after an abdominoplasty (Example 6); conditions: Compound 1 100 mg first dose, then 50 mg q12 h, placebo 8 hours
[3] = test system: acute pain after a bunionectomy; test: Randomized, double-blind, placebo-controlled, 3-arm study of Compound 1 in acute pain after a bunionectomy (Example 5); conditions: Compound 1 100 mg first dose, then 50 mg q12 h, placebo 8 hours
[4] = test system: pain following bunionectomy; test: Randomized, double-blind, placebo-controlled, 5-arm study of Compound 1 in subjects with pain following bunionectomy (Example 4); conditions: for Mean SPID48: oral
Procedure: A randomized, double-blind, placebo-controlled, 5-arm, parallel-design study to evaluate the efficacy and safety of Compound 1 on acute surgical pain is conducted. Bunionectomy is a well-established, multi-dose, surgical, acute pain model. A randomized, double-blind study design was used to avoid observer bias and reduce symptoms or outcomes arising from the subjects' knowledge of treatment.
Male and female patients between the ages of 18 and 75 years (inclusive) with pain that is ≥4 on an 11-point Numeric Pain Rating Scale (NPRS) and is moderate or severe on the Verbal Categorical Rating Scale (VRS) after bunionectomy are included in the study.
Investigational Drug: Compound 1. The investigational drug was administered orally in 10 mg tablets. […] The investigational drug was administered every 12 hours (q12h). A low, mid, and high dosing regimen were tested. The first dose in the low dosing regime was 20 mg, and the subsequent doses were 10 mg g12h. The first dose in the mid dosing regime was 60 mg, and the subsequent doses were 30 mg g12h. The first dose in the high dosing regime was 100 mg, and the subsequent doses were 50 mg g12h.
The reference drug was administered orally in 5 mg/325 mg capsules, supplied as over-encapsulated 5 mg/325 mg tablets. The reference drug was administered in a dose of 5 mg/325 mg every 6 hours (q6h).
After a screening period, subjects receive a primary unilateral first metatarsal bunionectomy repair on Day minus one under regional anesthesia (Mayo and popliteal block). A continuous popliteal sciatic block infusion (0.2% ropivacaine) is started after surgery, and remains in place until approximately 3 AM on Day 1. After removal of the popliteal sciatic block, each subject is randomized when the subject requests the first dose of study drug for pain relief and reports pain ≥4 on the NPRS and moderate or severe pain on the VRS.
Randomization was stratified by site and baseline NPRS (<8 versus ≥8). To maintain the blind, all subjects receive the same number of capsules in a double-dummy design.
Compound 1 was administered every 12 hours (q12h). The final dose of Compound 1 is given 36 hours after the first dose.
Compound 1 placebo capsules are administered every 12 hours (q12h).
11-point (0 to 10) Numeric Pain Rating Scale: NPRS scores are frequently used in bunionectomy studies and are recognized by the FDA as a valid pain intensity measure. On the 11-point NPRS, a score of 0 denotes no pain, and a score of 10 denotes the worst pain intensity imaginable. Subjects reported their pain on the 11-point NPRS immediately before their first dose of the study drug (baseline NPRS score) and at intervals over 48 hour period (i.e. 0.5, 1, 1.5, 2, 3, 4, 5, 6, 8, 12, 16, 20, 24, 28, 32, 36, 40, 44, and 48 hours (±5 minutes)) after the first dose of the study drug. Pain intensity is also recorded on the NPRS immediately before each administration of rescue medication. Pain intensity scores that are collected within 4 hours after a dose of rescue medication are deemed missing, and the missing values are imputed as the intensity recorded immediately before the administration of rescue medication.
SPID-48 is the sum of the pain intensity difference (PID) over the 48 hour time period. A pain intensity score of 0 (no pain) to 10 (worse possible pain) is obtained before starting the study and throughout the 48 time period. The pain score at each assessment time is subtracted from the baseline pain score to provide the total sum score or SPID-48. A higher SPID-48 is better and indicates a reduction in pain intensity compared to the baseline score.
4-point Verbal Categorical Rating Scale: Subjects report their pain on the 4-point VRS (none, mild, moderate, or severe) immediately before their first dose of the study drug (baseline VRS).

[5] = test system: acute pain (surgical and non-surgical); test: Single-arm study of safety and effectiveness of Compound 1 for acute pain, surgical and non-surgical subjects (Example 7); assay type: in vivo, human; conditions: Compound 1 100 mg first dose, then 50 mg q12h
[6] = test system: painful diabetic peripheral neuropathy (DPN); test: Randomized, double-blind, active-controlled, dose-ranging, 4-arm study of Compound 1 in painful diabetic peripheral neuropathy (Example 8)
Source text: The study population included male and female subjects 18 through 80 years of age, inclusive, with presence of bilateral pain in lower extremities due to DPN for at least 1 year, and weekly average Numeric Pain Rating Scale (NPRS) pain score of ≥4.
Subjects who met eligibility criteria entered a 7-day Run-in Period to establish their baseline Numeric Pain Rating Scale (NPRS) pain score and Daily Sleep Interference Scale (DSIS) score. Subjects with a baseline average NPRS score of ≥4 points with limited variation (SD<25% of mean) were eligible for the 12-week Treatment Period followed by a Safety Follow-up Visit.
Randomization was stratified by sex (female and male) and body mass index (≥30 and <30 kg/m^2). To maintain the blind, all subjects received the same number of tablets once daily (qd) in the morning and the same number of capsules 3 times per day (tid) in a double-dummy design.
Acetaminophen was be permitted as a pain rescue medication as needed (prn) throughout the study. Subjects were permitted to take 500 mg of acetaminophen every 4 to 6 hours as needed, up to a maximum of 2500 mg in any 24-hour period.
The reference drug was administered orally in a 100 mg capsule tid.
From Day −7 through Week 12, subjects reported their average daily pain during the last 24 hours on the NPRS via e-diary; during the treatment period, the NPRS was completed in the morning before the first daily dose. Subjects also reported their current pain score before each administration of rescue medication. The NPRS scores from the daily e-diary, especially the change from baseline in the weekly average at Week 12, were used in the primary endpoint analysis, and the proportion of subjects with ≥30%, ≥50%, and ≥70% reduction in weekly average scores, especially at Week 12, as reported in the daily e-diary were used in the secondary endpoint analyses. For the primary endpoint, daily NPRS scores were averaged over a weekly period to reduce the impact of individual high or low pain scores.
Daily Sleep Interference Scale (DSIS): Pain frequently interferes with sleep, and sleep is important to quality of life. The FDA recommends evaluating the effect of analgesics on sleep. DSIS is commonly used in neuropathic pain studies and is assessed on an 11-point scale. The 11 point scale ranges from 0 (none) to 10 (severe). The DSIS was completed each morning before the first daily dose in an e-diary to describe how pain interfered with the subject's sleep. The change from baseline in the weekly average of DSIS, especially at Week 12, was used in the secondary endpoint analysis.
Patient Global Impression of Change (PGIC): The PGIC is commonly used in neuropathic pain studies, and the Initiative on Methods, Measurement, and Pain Assessment in Clinical Trials (IMMPACT) group recommends it as a core outcome measure for chronic pain studies and is thus evaluated in this study. There is some evidence that PGIC may be more sensitive in neuropathic pain studies than pain intensity assessments because it may assess additional quality of life measures. The assessment consists of a single item on a 7-point scale from 1 (very much improved) to 7 (very much worse). The PGIC was completed at selected study visits to quantify the change in subjects' overall status. The proportion of subjects categorized as improved on the PGIC assessment, especially at Week 12, was used in the secondary endpoint analysis.
Proportion of subjects using Rescue Medication and Total Medication Usage: Acetaminophen was permitted as a pain rescue medication as needed (prn) throughout the study.

[7] = Compound 1 combined dose groups, pregabalin 100 mg tid, 12 weeks

COc1c([C@H]2[C@H](C(=O)Nc3ccnc(C(N)=O)c3)O[C@@](C)(C(F)(F)F)[C@H]2C)ccc(F)c1F [Compound 1, (2R,3S,4S,5R)-4-[[3-(3,4-difluoro-2-methoxy-phenyl)-4,5-dimethyl-5-(trifluoromethyl)tetrahydrofuran-2-carbonyl]amino]pyridine-2-carboxamide]
Improvement in SPID48 [1]: statistically significant improvement in SPID48 | Median time to ≥2-point reduction in NPRS from baseline [2]: 2 h | Median time to 2-point reduction in NPRS from baseline [3]: 4 h | Onset of action ([4]; Compound 1 high dose, 48 hour assessment): rapid and was sustained through the duration of assessment | Mean SPID48 ([4]; High-dose Compound 1: 100 mg first dose/50 mg every 12 hours, n = 60, NPRS 0 to 48 hours): 137.8 | Mean SPID48 difference from placebo ([4]; Low-dose Compound 1: 20 mg first dose/10 mg every 12 hours, n = 33): 11.9 | Mean SPID48 ([4]; Low-dose Compound 1: 20 mg first dose/10 mg every 12 hours, n = 33, NPRS 0 to 48 hours): 112.9 | Mean SPID48 difference from placebo ([4]; Mid-dose Compound 1: 60 mg first dose/30 mg every 12 hours, n = 62): −14.1 | Mean SPID48 ([4]; Mid-dose Compound 1: 60 mg first dose/30 mg every 12 hours, n = 62, NPRS 0 to 48 hours): 86.9 | Patients reporting good, very good, or excellent on Patient Global Assessment (PGA) at end of treatment ([5]; all patients (256 subjects)): 83.2% | Patients reporting good, very good, or excellent on Patient Global Assessment (PGA) at end of treatment ([5]; non-surgical patients (34 subjects)): 91.2% | Patients reporting good, very good, or excellent on Patient Global Assessment (PGA) at end of treatment ([5]; surgical patients (222 subjects)): 82.0% | Serious adverse events related to study drug ([5]; up to 14 days): no serious adverse events were related to Compound 1 | Incidence of serious adverse events ([5]; up to 14 days, 256 subjects): 0.8% | Treatment discontinuations due to adverse events ([5]; up to 14 days, 256 subjects): 2.0% | Safety and tolerability ([5]; up to 14 days, surgical and non-surgical pain, 256 subjects): generally safe and well tolerated | Change from baseline at week 12 in weekly average of daily pain on the NPRS (LS Mean) ([6]; Compound 1 23 mg qd (low dose), painful DPN): −2.18 | Change from baseline at week 12 in weekly average of daily pain on the NPRS (LS Mean) ([6]; Compound 1 46 mg qd (mid dose), painful DPN): −2.11 | Change from baseline at week 12 in weekly average of daily pain on the NPRS (LS Mean) ([6]; Compound 1 69 mg qd (high dose), painful DPN): −2.26 | Reduction in pain from baseline (NPRS) ([6]; all three Compound 1 dose groups (23, 46, 69 mg qd), 12-week treatment, painful DPN): statistically significant and clinically meaningful reduction in pain from baseline; also recorded: significant mean reduction in pain from baseline that started from week 1 | Sleep (Daily Sleep Interference Scale, DSIS) at week 12 ([6]; all three Compound 1 dose groups (23, 46, 69 mg qd), painful DPN): improvement in sleep

CC(C)C[C@H](CN)CC(=O)O [Pregabalin, reference compound]
Incidence of dizziness (adverse event) [6, 7]: 9.3% | Incidence of peripheral edema (adverse event) [6, 7]: 5.6% | Incidence of weight increased (adverse event) [6, 7]: 7.4% | Change from baseline at week 12 in weekly average of daily pain on the NPRS (LS Mean) ([6]; Pregabalin 100 mg tid, painful DPN): −2.09 | Related adverse events ([6]; patients treated with Compound 1 (combined), patients treated with pregabalin 100 mg tid, 12 weeks): 27.8%
